Values after ≈ are worked out from the molar mass of the structure shown. Values joined by “and” are separate entries in the source; they are usually repeats but may differ in a detail not shown here. Equal entries are not always repeated.
Experiments:
Assay type in all cases: physicochemical
[1] = Dynamic vapor sorption (DVS) analysis; details: for further increase between 60% RH and 90% RH / water gain up to 60% RH / total water absorption over the humidity range: first sorption cycle, hydrobromide; for further increase between 60% RH and 90% RH: 60% RH to 90% RH; for total water absorption over the humidity range: up to 90% RH
Description: Dynamic vapor sorption (DVS) data was collected for both 5-MeO DMT HBr Pattern A and Pattern B. The DSV data are shown in FIG. 10 (Pattern A) und FIG. 11 (Pattern B). DVS profiles are almost identical.

[2] = Solubility and pH in water for injection (24 hours equilibration, 25° C.); details: for pH value of the suspension/solution after 24 hours: in water for injection, determined at 25° C.; for solubility at 24 h: water for injection, 24 hours of equilibration, 25° C.
Description: 5-MeO-DMT freebase and 5-MeO-DMT hydrobromide (30 mg) were weighed out into crystallisation tubes, water for injection (WFI; 150 μL, 5 vols) was charged and samples were left to equilibrate (25° C.) over 24 hours.
The free base led to a suspension. An additional 850 μl of water was added. The mixture was still a suspension. […] The pH value of the suspension after 24 hours was 9.93, determined at 25° C.
In the case of 5-MeO-DMT HBr, a solution was obtained. […] The pH value of the solution after 24 hours was 6.84, determined at 25° C.

[3] = Flow properties (bulk density, tapped density); details: for Hausner Factor: Tapped density/Bulk density; for Carr's Index: calculated from tapped and bulk density
Description: The bulk density and the tapped density of an HBr salt sample as obtained according to the above method was determined applying standard methods. • Bulk density: 0.19 g/cm^3 • Tapped density: 0.25 g/cm^3 • From this, the Carr's Index characterizing flow properties can be calculated ([…]). The index is 24%.

[4] = Particle size distribution by laser light scattering; details: sample weight 800 mg; listed as HBr salt, hydrobromide
Description: The particle size distribution of a sample obtained as in the above example was determined using a laser light scattering method.

SMILES	modification of form following equilibration at extremes of relative humidity [1]	further increase between 60% RH and 90% RH [1]	water gain up to 60% RH [1]	total water absorption over the humidity range [1]	pH value of the suspension/solution after 24 hours [2]	solubility at 24 h ([2]; pH 6.84, thermodynamic from solid)	Bulk density [3]	Tapped density [3]	Hausner Factor [3]	Carr's Index [3]	Dv10 [4]	Dv90 [4]	solubility at 24 h ([2]; pH 9.93, thermodynamic from solid)
Br.COc1ccc2[nH]cc(CCN(C)C)c2c1 [5-MeO-DMT HBr Pattern A, 5-methoxy-N,N-dimethyltryptamine hydrobromide]	Neither form showed any modification	1.56 wt %	0.13%	1.7 wt %									
Br.COc1ccc2[nH]cc(CCN(C)C)c2c1 [5-MeO-DMT HBr Pattern B, 5-methoxy-N,N-dimethyltryptamine hydrobromide]	Neither form showed any modification	1.57 wt %	0.14%	1.71 wt %									
Br.COc1ccc2[nH]cc(CCN(C)C)c2c1 [5-MeO-DMT HBr, 5-methoxy-N,N-dimethyltryptamine hydrobromide]					6.84	> 200000 µg/mL	0.19 g/mL	0.25 g/mL	1.31	24%	57.8 μm and 60.8 μm and 65.1 μm	613 μm and 630 μm and 643 μm	
COc1ccc2[nH]cc(CCN(C)C)c2c1 [free base, 5-Methoxy-N,N-dimethyltryptamine, reference compound]					9.93		0.32 g/mL	0.54 g/mL	1.68	41%			3290 µg/mL (≈ 15.1 mM)
